# According to article PMC11053681, “Gold(I) and Silver(I) Complexes Containing Hybrid Sulfonamide/Thiourea Ligands as Potential Leishmanicidal Agents” (Pharmaceutics, 2024):
# Like-named read-outs stand apart in the source and are kept apart here.
# Assays:
# [1] = biological target: T1, LbOYE (Leishmania braziliensis, UniProt A4H6Z3); test: LbOYE enzyme kinetics (NADPH decay at 340 nm); type: biochemical; conditions: 20 µmol L^−1 compound, 1 µmol L^−1 LbOYE, 100 µmol L^−1 NADPH; substrates NEM and O2
# Experimental: The initial rates were obtained through the decay of the band at 340 nm referring to the maximum absorption of the NADPH (Nicotinamide Adenine Dinucleotide Phosphate) reducer, as previously reported. Solutions containing 1 µmol L^−1 of LbOYE, DMSO or 20 µmol L^−1 of the tested compounds from a stock solution at a concentration of 5 mmol L^−1 in DMSO were prepared in the presence and absence of the substrate N-Ethylmaleimide (NEM). These solutions were left for 30 min at room temperature. After 30 min, the NADPH reducer was added at a final concentration of 100 µmol L^−1.
# Figure 7 Initial velocity (V0) for the reaction between 1 µmol L^−1 of LbOYE and 100 µmol L^−1 of NADPH in the presence of DMSO (control) or 20 µmol L^−1 of the compounds tested. Using (A) 100 µmol L^−1 of NEM in the presence of O2 and (B) absence of NEM in the presence of O2. Experiments carried out in phosphate buffer 25 mmol L^−1 pH 7.0, NaCl 100 mmol L^−1.
# [2] = tested on: Vero cells; test: Cytotoxicity assay on Vero cells (resazurin); type: cell-based, African green monkey; conditions: 24 h treatment
# Procedure, shortened: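 Vero cells seeded at 5 × 10^5 cells/well, grown 24 h at 37 °C, 5% CO2 in RPMI with 10% FBS. Compounds tested in triplicate by serial dilution from 500 µM to 3.9 µM for 24 h. Viability read as resazurin fluorescence.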
# [3] = biological target: T1, LbOYE; test: Suppression of intrinsic tryptophan fluorescence of LbOYE; type: binding; conditions: 25 °C
# Description: The recombinant LbOYE protein was produced using the methodology previously described. Briefly, the protein was expressed in strains of bacterial Escherichia coli BL21(DE3) through induction by IPTG using the pET28a:LbOYE vector. The enzyme was purified through a chromatography step of capture by nickel affinity, as the pET28a vector allows the expression of a polyhistidine fusion peptide, located at the N-terminal end of the protein. After affinity purification, the polyhistidine tail was excised by “overnight” incubation with thrombin, and the second purification step was performed using size exclusion chromatography. Purification was evaluated by SDS-PAGE and protein concentration was estimated by spectrophotometry.
# The emission spectra of the intrinsic fluorescence of the tryptophan were recorded using a Shimadzu F-4500 spectrofluorometer in the range of 310–420 nm, with opening of slits of excitation and emission at 5.0 nm and λex = 295 nm. Interaction analyzes between LbOYE and ligands were performed at λmax = 333 nm.
# The compounds were solubilized in DMSO and then we made successive dilutions in a Tris-HCl 25 mmol L^−1 buffer, pH 8.0, containing 100 mmol L^−1 of NaCl. For all experiments, the final concentration of DMSO was kept constant and equal to 2.5%. Solutions with increasing concentrations of ligand and constant concentration of LbOYE (1 µmol L^−1) were prepared, which were kept at 25 °C for a period of 1h before acquisition of fluorescence emission spectra.
# The results were obtained from the fluorescence emission spectra of the intrinsic tryptophan probe in the presence of the compounds HL1^Ch, HL3^FPh, HL5^NO2Ph, [Au(HL1^Ch)2]Cl and [Ag(HL3^FPh)2]NO3. The bonding parameters were determined by the Hill plot, obtaining the dissociation constant (Kd) through the non-linear adjustment of the saturation curve to the experimental data. The double-log plot was used to determine the bonding constant and the number of bonding sites (n). It also allows the calculation of the bonding constant (Kb) and Kd from 1/Kb.
# Equation (1)—Hill’s equation:(1) F0−F/F0=[L]/L+Kd
# Equation (2)—Double-log:(2) logF0−F/F0=nlogKb−nlog1/L−(F0−F)[P0]/F
# Equation (3)—Equation of Stern–Volmer:(3) F0/F=1+KSV[L]
# The study of fluorescence quenching can be affected when the ligand has absorption bands that coincide with excitation and emission wavelengths of fluorescence. This interference is called the internal filter effect, which can be minimized using the procedure described by Equation (4). Fobs and Fcor are the fluorescence intensities at 333 nm measured and corrected, respectively; l represents the optical step where the absorption and emission of light occurs and C0 is the concentration of the ligand.
# For the correction of the internal filter effect, were used the molar absorptivity coefficient values in the excitation (295 nm) and emission (333 nm) lengths, [λ/ε (L mol^−1 cm^−1)]; HL1^Ch (εex = 373 and εem = 117), HL3^FPh (εex = 1191 and εem = 57), HL5^NO2Ph (εex = 6162 and εem = 9124), Au1 (εex = 7045 and εem = 4008) and Ag3 (εex = 9431 and εem = 3281).
# T1 sequence (A4H6Z3 entry or part of it): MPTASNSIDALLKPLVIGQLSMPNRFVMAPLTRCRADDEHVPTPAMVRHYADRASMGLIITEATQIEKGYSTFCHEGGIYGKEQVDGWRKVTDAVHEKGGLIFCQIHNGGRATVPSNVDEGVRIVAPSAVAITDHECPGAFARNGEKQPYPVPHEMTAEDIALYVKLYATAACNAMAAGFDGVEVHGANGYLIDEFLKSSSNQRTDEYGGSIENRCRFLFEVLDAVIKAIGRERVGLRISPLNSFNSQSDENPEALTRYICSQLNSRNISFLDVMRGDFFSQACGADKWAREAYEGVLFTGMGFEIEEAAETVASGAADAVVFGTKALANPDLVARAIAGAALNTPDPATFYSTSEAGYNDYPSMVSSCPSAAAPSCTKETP
structure (smiles),measurement,setting,value
"Cc1ccc(S(=O)(=O)NNC(Nc2ccc(F)cc2)=[S][Ag+][S]=C(NNS(=O)(=O)c2ccc(C)cc2)Nc2ccc(F)cc2)cc1.O=[N+]([O-])[O-] [Ag3, [Ag(HL3^FPh)2]NO3]","Inhibition of LbOYE reaction (initial velocity V0), in words",[1],capable of inhibiting the reaction of the enzyme both with the NEM and for O2
same,CC50,[2],> 500 µM
same,Kd,"[3]; Hill plot (n = 1), Equation (1), Tris-HCl pH 8.0, 2.5% DMSO, read-out: Kd * (Hill plot)",9.6 ± 0.7 µM
same,Ksv *** (Stern–Volmer constant),"[3]; Stern–Volmer, Equation (3)",23 ± 2 × 10^4
same,Kd,"[3]; double log, Equation (2), Kd = 1/Kb, read-out: Kd ** (double log) (converted)",11.2 ± 0.3 µM
same,n ** (number of bonding sites),"[3]; double log, Equation (2)",2.0 ± 0.1
